The text below walks through data of paper PMC6508677, “Identification of druggable small molecule antagonists of the Plasmodium falciparum hexose transporter PfHT and assessment of ligand access to the glucose permeation pathway via FLAG-mediated protein engineering” (PLoS ONE, 2019).

The IC50 is the point on the concentration scale where inhibition reaches its midpoint.

Where “and” joins values, the source holds several entries; their conditions need not be identical. Identical values can stand only once. Like-named read-outs stand apart in the source and are kept apart here.

The assay concerns the target T1, hGLUT8 (Homo sapiens, UniProt Q9NY64, E7R/E8R).
T1 construct: expressed in transfected cells; host or cells: HEK293 (HEK293-FLIP, native hGLUT1 knocked down)
T1 sequence (Q9NY64 1-477 E7R/E8R): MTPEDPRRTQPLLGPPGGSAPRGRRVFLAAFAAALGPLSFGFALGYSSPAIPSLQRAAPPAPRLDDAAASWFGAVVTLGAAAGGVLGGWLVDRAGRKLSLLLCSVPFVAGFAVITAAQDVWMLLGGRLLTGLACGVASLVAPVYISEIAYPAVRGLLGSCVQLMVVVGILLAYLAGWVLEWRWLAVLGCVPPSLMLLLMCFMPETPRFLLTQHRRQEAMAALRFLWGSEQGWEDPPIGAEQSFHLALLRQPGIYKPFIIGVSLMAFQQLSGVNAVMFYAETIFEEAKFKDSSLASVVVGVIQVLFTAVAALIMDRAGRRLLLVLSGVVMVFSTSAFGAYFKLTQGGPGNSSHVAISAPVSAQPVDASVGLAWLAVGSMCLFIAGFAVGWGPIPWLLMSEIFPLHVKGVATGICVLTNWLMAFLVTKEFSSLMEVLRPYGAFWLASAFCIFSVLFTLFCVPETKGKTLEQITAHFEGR
The assay can be described thus: 2-DG uptake by HEK293 cells overexpressing hGLUT8. The format is cell-based. An excerpt: Generation of HEK293 cells overexpressing PfHT and human GLUTs 1–4 were described elsewhere. Briefly, HEK293 cells were transfected with pcDNA3.1 FLII12Pglu-7006 (Addgene), containing the fluorescence resonance energy transfer (FRET) glucose sensor (HEK293-FLIP) and PfHT, human GLUT1 (hGLUT1), hGLUT2, hGLUT3, hGLUT4, hGLUT5 or hGLUT8 using Optifect (Life Technologies) according to manufacturer’s specifications. To increase retention of GLUT8 at the plasma membrane, the dileucine sorting signal E^7E^8XXXLL was modified to R^7R^8XXXLL as described in [17]. Stable transfectants were selected for G418 and hygromycin resistance to select for FRET sensor and hexose transporter, respectively. HEK293-FLIP cells were also used to generate cells stably transfected with FLAG-tagged PfHT (FTPfHT). FLAG tag ([…]) followed by a triple glycine linker and a tobacco etch virus (TEV) protease site (ENLYFQS) followed by a triple glycine linker was added to the N-terminus of PfHT via PCR [18] using Phusion Hot Start II High-Fidelity DNA Polymerase (Fisher Scientific). Single clones were selected by comparing their abilities to transport glucose as assayed via FRET and radiolabeled hexose uptake. In all cell lines, except for HEK293 cells overexpressing hGLUT1 and hGLUT5, native hGLUT1 was knocked down using shRNA as described elsewhere. Transcript levels of the individual GLUTs expressed in each cell line are as described in [13, 15] and in S1 Fig.
Glucose uptake by P. falciparum was performed essentially as described. P. falciparum strain 3D7 was cultured in 100 mm tissue culture dishes (Techno Plastic Products) in a 2% suspension of human erythrocytes and RPMI 1640 medium until reaching > 7.5% parasitemia. Cells were pelleted via centrifugation and resuspended in RPMI 1640 medium. To determine the uptake of radiolabeled glucose into the parasite, parasites were isolated from infected erythrocytes by permeablization with saponin (0.05 w/v), followed by centrifugation, aspiration of supernatant and washing of the pellet 3X with saline solution (135 mM NaCl, 2 mM KCl, 25 mM HEPES, 0.2 mM glucose and 1 mM MgCl2; pH 7.1) to remove cellular debris. WU-1 or DMSO vehicle were added to 100 μl parasites (resuspended in saline) 5 min prior to the addition of 100 μl [^14C]2-DOG (0.2- μCi/ml final concentration). 2-DG uptake was stopped after 2 min by layering the entire reaction over 300 μl of an oil mixture (5:4 mix of dibutyl phthalate / dinonyl phthalate) in Eppendorf tubes and centrifuged at 15,850 × g for 2 mins. The ratio of the estimated intracellular concentration of radiolabel relative to the extracellular concentration were calculated as described. Uptake of radiolabeled hexose into HEK293 cells was measured in glucose-free HBSS as described previously. Briefly, cells were plated at 400,000 cells/well overnight at 37°C in 24-well plates pre-treated with PEI. After 30-min incubation at 37°C in glucose-free HBSS in the presence of vehicle or increasing concentrations of compound, 2-DG uptake was measured in glucose-free HBSS for 4 min at 37°C. Cultures were washed in ice-cold 1X PBS and lysed in 0.1% Triton X-100 in 1X PBS. Radiolabeled hexose uptake was determined by liquid scintillation counting (Ultima Gold, Thermo Fisher) and normalized to total protein per well. Uptake data are plotted as percent uptake relative to vehicle-treated cells. Kinetic analyses were performed using the indicated concentrations of substrate and WU-1, with quenching of uptake after 1 min incubation. Incubation times had been previously determined as being in the linear range of time-dependent radiolabeled hexose uptake (2 min for 2-DG uptake into freed parasites; 2 and 4 min for D-Frc and 2-DG uptake HEK cell lines, respectively). Data were fit by least squares nonlinear regression analysis using GraphPad Prism 6.0 software.

Regarding `Cc1ccc(S(=O)(=O)CCNC(=O)c2c(-c3c(Cl)cccc3Cl)noc2C)cc1` [WU-1, 3-(2,6-dichlorophenyl)-5-methyl-N-[2-(4-methylbenzenesulfonyl)ethyl]-1,2-oxazole-4-carboxamide], the IC50 is, setting by setting: (GLUT8, 2-DG Uptake, average of Expt 1-3, read-out: AVE IC50) 25 µM; (GLUT8, 2-DG Uptake, single experiments Expt 1-3, read-out: IC50) 39.8 µM and 19.9 µM and 15.3 µM; (GLUT8 cell line, read-out: IC50, 2-DG uptake) 25 ± 7.5 µM. Besides, the remaining activity at 0.001 µM (HEK293, 4 min, GLUT8, concentration 0.001 µM, Expt 1-3, read-out: 2-DG Uptake AVE) came out at 100%. Moreover, the remaining activity at 0.3125 µM (HEK293, 4 min, GLUT8, concentration 0.3125 µM, read-out: 2-DG Uptake AVE) worked out at 104%. In addition, the remaining activity at 0.625 µM (HEK293, 4 min, GLUT8, concentration 0.6250 µM, read-out: 2-DG Uptake AVE) turned out to be 95.3%. The remaining activity at 1.25 µM (HEK293, 4 min, GLUT8, concentration 1.250 µM, read-out: 2-DG Uptake AVE) was 98.6%. Further, under “HEK293, 4 min, GLUT8, concentration 2.500 µM, read-out: 2-DG Uptake AVE”, the remaining activity at 2.5 µM amounted to 97.5%. For the same molecule, the remaining activity at 5 µM (HEK293, 4 min, GLUT8, concentration 5.0 µM, read-out: 2-DG Uptake AVE) amounted to 88%. Also, for the setting “HEK293, 4 min, GLUT8, concentration 20 µM, read-out: 2-DG Uptake AVE”, the remaining activity at 20 µM stood at 60.6%. Besides, for the setting “HEK293, 4 min, GLUT8, concentration 80 µM, read-out: 2-DG Uptake AVE”, the remaining activity at 80 µM was found to be 41.2%. Further, the remaining activity at 160 µM (HEK293, 4 min, GLUT8, concentration 160 µM, read-out: 2-DG Uptake AVE) amounted to 25.7%. Moreover, the remaining activity at 225 µM (HEK293, 4 min, GLUT8, concentration 225 µM, read-out: 2-DG Uptake AVE) was determined as 23.9%. Besides, the “Selectivity Index (PfHT over GLUT8), 2-DG” value (calculated from IC50s) is reported as 4.3.
